{"source": "patent US5334583A", "about": "(priority 1982, dated 1994)", "type_in_all_cases": "in vivo", "key": {"[1]": {"test_system": "Influenza B/Hong Kong/5/72", "experiment": "Survival of mice infected intranasally with lethal dose of Influenza B/Hong Kong/5/72", "conditions": "intranasal, day -7, 0.1 mg/kg single dose; control 30"}, "Encephalomyocarditis": {"test_system": "Encephalomyocarditis", "experiment": "Survival of mice infected intranasally with lethal dose of Encephalomyocarditis virus", "conditions": "oral, control 30"}, "Herpes Simplex 1/TUP": {"test_system": "Herpes Simplex 1/TUP", "experiment": "Survival of mice infected intranasally with lethal dose of Herpes Simplex 1/TUP", "conditions": "intranasal, day -7, 0.1 mg/kg single dose; control 20", "method": "Groups of 30, 40 or 50 female MF-2f SPF mice each having a body weight of 14-16 g, or of 12-14 g in the case of tests with herpes simplex 1 viruses, are infected intranasally, under light anaesthesia using a mixture of equal parts of ether, ethanol and chloroform, with lethal doses (approximately LD80-90; number of plaque-forming units [PFU] see Table 1 ) of the undermentioned virus strains in the form of 0.05 ml in each case of a suspension of the viruses.\nAt the time indicated below (days) in relation to the day of infection, 10 or 20 of these mice are administered once (single dose) the quantities indicated in Table 1 of the active ingredient, the sodium salt of N-acetylmuramyl-L-alanyl-D-isoglutaminyl-L-alanine-2-(1,2-dipalmitoyl-sn-glycero-3-hydroxyphosphoryloxy)-ethylamide (compound I), in 0.05 ml or 0.1 ml of phosphate-buffered salt solution (PBS) or in 0.2 ml of a 0.05 % by weight solution of sodium carboxymethylcellulose in double-distilled water, by means of intranasal, intravenous or oral administration respectively, in the manner indicated in Table 1 .\nThe remainder of the above-mentioned mice, that is 20 or 30, serve as the control, that is to say they either receive no treatment or are given a placebo.\nThe intranasal administration of compound I is effected under light anaesthesia using a mixture of equal parts of diethyl ether, ethanol and chloroform."}, "Herpes Simplex 1/Virtue": {"test_system": "Herpes Simplex 1/Virtue", "experiment": "Survival of mice infected intranasally with lethal dose of Herpes Simplex 1/Virtue", "conditions": "intranasal, day -7, 0.1 mg/kg single dose; control 40"}, "[2]": {"test_system": "Herpesvirus hominis 2/Angelotti", "experiment": "Topical chemotherapy of Herpes genitalis in guinea pigs, local symptoms", "conditions": "for Animals [%] with regression of symptoms of ≥ 66% on day 7 / Animals [%] with regression of symptoms of ≥ 66% on day 10 / Animals [%] with regression of symptoms of ≥ 66% on day 12 / Animals [%] with regression of symptoms of ≥ 66% on day 14 / Symptom-free animals [%] on day 10 / Symptom-free animals [%] on day 12 / Symptom-free animals [%] on day 14 / Symptom-free animals [%] on day 21: placebo 0, untreated 0; for Symptom-free animals [%] on day 34: placebo 0, untreated 20", "source_text": "The number indicated in the following Table of female albino guinea pigs of the Pirbright strain (150-180 g body weight) are infected intravaginally with ~10^4 PFU (plaque-forming units) of Herpesvirus hominis 2/Angelotti, cultivated in HEL (human embryonal lungs) cells, as described in B. Lukas et. al., Arch. ges. Virusforsch. 44, 153-155 (1974) .\nAt the time indicated in the following Table (the time difference in days in relation to the day of infection, - [minus] indicating a time before infection) the number N of guinea pigs indicated in Table 2 are treated intravaginally with a single dose of in each case 0.1 ml of a gel containing the concentration of compound I indicated in Table 2.\nThe gel without active ingredient has the following composition:\n2.25 % sodium carboxymethylcellulose (Hercules, USA)\nmade up to 100 % with bi-distilled water.\nThe effect of the treatment can be seen in Table 2.\nThe symptoms occurring in untreated animals are described in B. Lukas et al., Arch. Virol. 49, 1-11 (1975) ."}, "vaccinal virus IHD": {"test_system": "vaccinal virus IHD", "experiment": "Tail lesions in mice infected intravenously with vaccinal virus IHD", "conditions": "1 mg/kg oral; for Number of tail lesions (mean ± standard deviation) on day +7 / Number of tail lesions (mean ± standard deviation) on day +9: control 4.3 ± 1.9; for Number of tail lesions (mean ± standard deviation) on day +12: control 4.6 ± 1.8; for Number of tail lesions (mean ± standard deviation) on day +10: control 5.9 ± 1.9", "method": "Groups of 20 female Tif:MF-2f (SPF) mice each having a body weight of 14-16 g are infected intravenously, under light anaesthesia using a mixture of equal parts of diethyl ether, ethanol and chloroform, with 2×10^3 PFU vaccinal virus IHD in the form of in each case 0.1 ml of a suspension of the virus in beef heart infusion broth.\n10 of these mice from each of the above-mentioned groups are treated on the fourth or sixth day after infection, that is to say on day +4 or +6 (administration day), with a single oral administration of 1 mg/kg of compound I in 0.2 ml of a 0.05 % by weight aqueous solution of sodium carboxymethylcellulose.\nThe remaining 10 mice from each of the above-mentioned groups serve as the controls and receive a placebo.\nOn the seventh, ninth, tenth and twelfth day after infection the number of tail lesions in the mice is determined, this being carried out substantially as described by J. J. Boyle, R. F. Haff and R. C. Stewart in Antimicrobial Agents and Chemotherapy, 536-539 (1967), and it should be noted that the first tail lesions can be identified only on the sixth or seventh day."}, "[3]": {"conditions": "0.1 ml gel 0.1 % intravaginal, single dose day +4, N 13"}, "[4]": {"conditions": "0.1 ml gel 0.1 % intravaginal, single dose day -7, N 14"}, "[5]": {"conditions": "0.1 ml gel 1.0 % intravaginal, single dose day +4, N 14"}, "[6]": {"conditions": "0.1 ml gel 1.0 % intravaginal, single dose day -7, N 14"}, "[7]": {"conditions": "single administration on day +4"}, "[8]": {"conditions": "single administration on day +6"}}, "data": [{"smiles": "CCCCCCCCCCCCCCCC(=O)OC[C@H](COP(=O)(O)OCCNC(=O)[C@H](C)NC(=O)CC[C@@H](NC(=O)[C@H](C)NC(=O)[C@@H](C)O[C@H]1[C@H](O)[C@@H](CO)OC(O)[C@@H]1NC(C)=O)C(N)=O)OC(=O)CCCCCCCCCCCCCCC", "note": "(stereo partly drawn) [compound I, N-acetylmuramyl-L-alanyl-D-isoglutaminyl-L-alanine-2-(1,2-dipalmitoyl-sn-glycero-3-hydroxyphosphoryloxy)-ethylamide]", "values": [{"measurement": "Percentage survivors", "setting": "[1]", "result": 80, "unit": "%"}, {"measurement": "Percentage survivors", "setting": "Encephalomyocarditis; day +4, 1 mg/kg single dose", "result": 90, "unit": "%"}, {"measurement": "Percentage survivors", "setting": "Encephalomyocarditis; day +4, 10 mg/kg single dose", "result": 70, "unit": "%"}, {"measurement": "Percentage survivors", "setting": "Encephalomyocarditis; day +4, 100 mg/kg single dose", "result": 100, "unit": "%"}, {"measurement": "Percentage survivors", "setting": "Herpes Simplex 1/TUP", "result": 60, "unit": "%"}, {"measurement": "Percentage survivors", "setting": "Herpes Simplex 1/Virtue", "result": 70, "unit": "%"}, {"measurement": "Animals [%] with regression of symptoms of ≥ 66% on day 7", "setting": "[2]; [3]", "result": 62, "unit": "%"}, {"measurement": "Animals [%] with regression of symptoms of ≥ 66% on day 10", "setting": "[2]; [3]", "result": 85, "unit": "%"}, {"measurement": "Animals [%] with regression of symptoms of ≥ 66% on day 12", "setting": "[2]; [3]", "result": 100, "unit": "%"}, {"measurement": "Animals [%] with regression of symptoms of ≥ 66% on day 14", "setting": "[2]; [3]", "result": 93, "unit": "%"}, {"measurement": "Symptom-free animals [%] on day 10", "setting": "[2]; [3]", "result": 70, "unit": "%"}, {"measurement": "Symptom-free animals [%] on day 12", "setting": "[2]; [3]", "result": 77, "unit": "%"}, {"measurement": "Symptom-free animals [%] on day 14", "setting": "[2]; [3]", "result": 85, "unit": "%"}, {"measurement": "Symptom-free animals [%] on day 21", "setting": "[2]; [3]", "result": 100, "unit": "%"}, {"measurement": "Symptom-free animals [%] on day 34", "setting": "[2]; [3]", "result": 100, "unit": "%"}, {"measurement": "Animals [%] with regression of symptoms of ≥ 66% on day 7", "setting": "[2]; [4]", "result": 21, "unit": "%"}, {"measurement": "Animals [%] with regression of symptoms of ≥ 66% on day 10", "setting": "[2]; [4]", "result": 57, "unit": "%"}, {"measurement": "Animals [%] with regression of symptoms of ≥ 66% on day 12", "setting": "[2]; [4]", "result": 86, "unit": "%"}, {"measurement": "Animals [%] with regression of symptoms of ≥ 66% on day 14", "setting": "[2]; [4]", "result": 100, "unit": "%"}, {"measurement": "Symptom-free animals [%] on day 10", "setting": "[2]; [4]", "result": 43, "unit": "%"}, {"measurement": "Symptom-free animals [%] on day 12", "setting": "[2]; [4]", "result": 64, "unit": "%"}, {"measurement": "Symptom-free animals [%] on day 14", "setting": "[2]; [4]", "result": 86, "unit": "%"}, {"measurement": "Symptom-free animals [%] on day 21", "setting": "[2]; [4]", "result": 86, "unit": "%"}, {"measurement": "Symptom-free animals [%] on day 34", "setting": "[2]; [4]", "result": 100, "unit": "%"}, {"measurement": "Animals [%] with regression of symptoms of ≥ 66% on day 7", "setting": "[2]; [5]", "result": 79, "unit": "%"}, {"measurement": "Animals [%] with regression of symptoms of ≥ 66% on day 10", "setting": "[2]; [5]", "result": 79, "unit": "%"}, {"measurement": "Animals [%] with regression of symptoms of ≥ 66% on day 12", "setting": "[2]; [5]", "result": 86, "unit": "%"}, {"measurement": "Animals [%] with regression of symptoms of ≥ 66% on day 14", "setting": "[2]; [5]", "result": 93, "unit": "%"}, {"measurement": "Symptom-free animals [%] on day 10", "setting": "[2]; [5]", "result": 36, "unit": "%"}, {"measurement": "Symptom-free animals [%] on day 12", "setting": "[2]; [5]", "result": 64, "unit": "%"}, {"measurement": "Symptom-free animals [%] on day 14", "setting": "[2]; [5]", "result": 79, "unit": "%"}, {"measurement": "Symptom-free animals [%] on day 21", "setting": "[2]; [5]", "result": 86, "unit": "%"}, {"measurement": "Symptom-free animals [%] on day 34", "setting": "[2]; [5]", "result": 100, "unit": "%"}, {"measurement": "Animals [%] with regression of symptoms of ≥ 66% on day 7", "setting": "[2]; [6]", "result": 29, "unit": "%"}, {"measurement": "Animals [%] with regression of symptoms of ≥ 66% on day 10", "setting": "[2]; [6]", "result": 79, "unit": "%"}, {"measurement": "Animals [%] with regression of symptoms of ≥ 66% on day 12", "setting": "[2]; [6]", "result": 71, "unit": "%"}, {"measurement": "Animals [%] with regression of symptoms of ≥ 66% on day 14", "setting": "[2]; [6]", "result": 93, "unit": "%"}, {"measurement": "Symptom-free animals [%] on day 10", "setting": "[2]; [6]", "result": 21, "unit": "%"}, {"measurement": "Symptom-free animals [%] on day 12", "setting": "[2]; [6]", "result": 57, "unit": "%"}, {"measurement": "Symptom-free animals [%] on day 14", "setting": "[2]; [6]", "result": 86, "unit": "%"}, {"measurement": "Symptom-free animals [%] on day 21", "setting": "[2]; [6]", "result": 86, "unit": "%"}, {"measurement": "Symptom-free animals [%] on day 34", "setting": "[2]; [6]", "result": 100, "unit": "%"}, {"measurement": "Number of tail lesions (mean ± standard deviation) on day +7", "setting": "vaccinal virus IHD; [7]", "result": "0.9 ± 0.7"}, {"measurement": "Number of tail lesions (mean ± standard deviation) on day +9", "setting": "vaccinal virus IHD; [7]", "result": "0.9 ± 0.9"}, {"measurement": "Number of tail lesions (mean ± standard deviation) on day +12", "setting": "vaccinal virus IHD; [7]", "result": "0.2 ± 0.4"}, {"measurement": "Number of tail lesions (mean ± standard deviation) on day +10", "setting": "vaccinal virus IHD; [7]", "result": "0.9 ± 1.4"}, {"measurement": "Number of tail lesions (mean ± standard deviation) on day +7", "setting": "vaccinal virus IHD; [8]", "result": "1.1 ± 1.4"}, {"measurement": "Number of tail lesions (mean ± standard deviation) on day +9", "setting": "vaccinal virus IHD; [8]", "result": "0.9 ± 1.6"}, {"measurement": "Number of tail lesions (mean ± standard deviation) on day +12", "setting": "vaccinal virus IHD; [8]", "result": "0.5 ± 1.0"}, {"measurement": "Number of tail lesions (mean ± standard deviation) on day +10", "setting": "vaccinal virus IHD; [8]", "result": "0.3 ± 0.7"}]}]}
